Test results reported in the NIST ThermoML archive (doi:10.1021/acs.jced.8b00229).

Details: Liquid, Vibrating tube method

C=CCCC [1-pentene]
Details	mass density [kg/m3]
283.48 K, 100 kPa	650.3
283.48 K, 500 kPa	650.8
283.48 K, 1000 kPa	651.6
283.48 K, 3000 kPa	654
283.48 K, 70000 kPa	708.8
283.48 K, 80000 kPa	714.8
283.49 K, 5000 kPa	656.3
283.49 K, 10000 kPa	661.8
283.49 K, 15000 kPa	666.9
283.49 K, 20000 kPa	671.7
283.49 K, 25000 kPa	676.2
283.49 K, 30000 kPa	680.4
283.49 K, 35000 kPa	684.5
283.49 K, 40000 kPa	688.4
283.49 K, 45000 kPa	692.1
283.49 K, 50000 kPa	695.7
283.49 K, 55000 kPa	699.1
283.49 K, 60000 kPa	702.5
283.49 K, 90000 kPa	720.4
283.49 K, 100000 kPa	725.7
293.42 K, 100 kPa	640.1
293.42 K, 500 kPa	640.7
293.42 K, 1000 kPa	641.4
293.42 K, 3000 kPa	644
293.42 K, 5000 kPa	646.5
293.42 K, 10000 kPa	652.4
293.42 K, 40000 kPa	680.8
293.42 K, 55000 kPa	692
293.42 K, 60000 kPa	695.5
293.42 K, 70000 kPa	702.2
293.42 K, 80000 kPa	708.3
293.42 K, 90000 kPa	714.1
293.42 K, 100000 kPa	719.6
293.43 K, 15000 kPa	657.9
293.43 K, 20000 kPa	663
293.43 K, 25000 kPa	667.8
293.43 K, 35000 kPa	676.7
293.43 K, 45000 kPa	684.7
293.43 K, 50000 kPa	688.4
293.44 K, 30000 kPa	672.3
303.33 K, 100 kPa	629.8
303.33 K, 1000 kPa	631.1
303.33 K, 3000 kPa	634
303.33 K, 35000 kPa	668.9
303.34 K, 5000 kPa	636.7
303.34 K, 10000 kPa	643.1
303.34 K, 15000 kPa	649
303.34 K, 20000 kPa	654.5
303.34 K, 25000 kPa	659.6
303.34 K, 30000 kPa	664.4
303.34 K, 40000 kPa	673.2
303.34 K, 45000 kPa	677.3
303.34 K, 50000 kPa	681.2
303.34 K, 80000 kPa	702
303.34 K, 90000 kPa	707.9
303.35 K, 55000 kPa	685
303.35 K, 60000 kPa	688.6
303.35 K, 70000 kPa	695.6
303.35 K, 100000 kPa	713.6
313.27 K, 500 kPa	620.4
313.27 K, 3000 kPa	624.5
313.27 K, 5000 kPa	627.5
313.27 K, 10000 kPa	634.4
313.28 K, 1000 kPa	621.3
313.28 K, 15000 kPa	640.8
313.28 K, 20000 kPa	646.7
313.28 K, 25000 kPa	652.1
313.28 K, 30000 kPa	657.2
313.28 K, 45000 kPa	670.8
313.28 K, 50000 kPa	674.9
313.28 K, 70000 kPa	689.9
313.29 K, 35000 kPa	661.9
313.29 K, 40000 kPa	666.6
313.29 K, 55000 kPa	678.8
313.29 K, 60000 kPa	682.6
313.29 K, 80000 kPa	696.4
313.29 K, 90000 kPa	702.6
313.29 K, 100000 kPa	708.4
323.18 K, 500 kPa	608.6
323.18 K, 1000 kPa	609.3
323.18 K, 3000 kPa	612.8
323.18 K, 5000 kPa	616.1
323.19 K, 10000 kPa	623.7
323.19 K, 15000 kPa	630.6
323.19 K, 20000 kPa	636.9
323.19 K, 25000 kPa	642.7
323.19 K, 30000 kPa	648.1
323.19 K, 35000 kPa	653.1
323.19 K, 40000 kPa	657.9
323.19 K, 45000 kPa	662.4
323.19 K, 50000 kPa	666.7
323.19 K, 55000 kPa	670.8
323.19 K, 60000 kPa	674.7
323.19 K, 70000 kPa	682.2
323.19 K, 80000 kPa	689.1
323.19 K, 90000 kPa	695.4
323.19 K, 100000 kPa	701.5
333.04 K, 500 kPa	597.2
333.04 K, 1000 kPa	598.1
333.04 K, 3000 kPa	601.9
333.04 K, 5000 kPa	605.6
333.04 K, 10000 kPa	613.9
333.05 K, 15000 kPa	621.4
333.05 K, 20000 kPa	628.1
333.05 K, 25000 kPa	634.3
333.05 K, 30000 kPa	640
333.05 K, 35000 kPa	645.3
333.05 K, 40000 kPa	650.4
333.05 K, 45000 kPa	655.1
333.05 K, 50000 kPa	659.6
333.05 K, 55000 kPa	663.9
333.05 K, 60000 kPa	668
333.05 K, 70000 kPa	675.8
333.05 K, 100000 kPa	695.8
333.06 K, 80000 kPa	683
333.06 K, 90000 kPa	689.6
342.94 K, 500 kPa	585.8
342.94 K, 1000 kPa	586.8
342.94 K, 90000 kPa	684
342.95 K, 3000 kPa	591.2
342.95 K, 5000 kPa	595.3
342.95 K, 10000 kPa	604.4
342.95 K, 70000 kPa	669.9
342.95 K, 80000 kPa	677.2
342.95 K, 100000 kPa	690.4
342.96 K, 15000 kPa	612.5
342.96 K, 20000 kPa	619.8
342.96 K, 25000 kPa	626.3
342.96 K, 30000 kPa	632.4
342.96 K, 35000 kPa	638.1
342.96 K, 40000 kPa	643.4
342.96 K, 45000 kPa	648.4
342.96 K, 50000 kPa	653
342.96 K, 55000 kPa	657.5
342.96 K, 60000 kPa	661.8
352.82 K, 500 kPa	574.2
352.82 K, 1000 kPa	575.6
352.82 K, 3000 kPa	580.5
352.82 K, 5000 kPa	585.1
352.82 K, 10000 kPa	595.2
352.83 K, 15000 kPa	603.9
352.83 K, 20000 kPa	611.7
352.83 K, 25000 kPa	618.7
352.83 K, 30000 kPa	625.2
352.83 K, 35000 kPa	631.2
352.83 K, 40000 kPa	636.7
352.83 K, 45000 kPa	641.9
352.83 K, 50000 kPa	646.9
352.83 K, 55000 kPa	651.5
352.83 K, 70000 kPa	664.3
352.83 K, 80000 kPa	671.9
352.83 K, 90000 kPa	679
352.83 K, 100000 kPa	685.6
352.84 K, 60000 kPa	655.9
362.67 K, 500 kPa	560.5
362.67 K, 1000 kPa	561.8
362.67 K, 3000 kPa	567.4
362.67 K, 80000 kPa	664.9
362.67 K, 100000 kPa	679
362.68 K, 5000 kPa	572.6
362.68 K, 10000 kPa	583.8
362.68 K, 15000 kPa	593.3
362.68 K, 20000 kPa	601.7
362.68 K, 25000 kPa	609.2
362.68 K, 30000 kPa	616.1
362.68 K, 35000 kPa	622.4
362.68 K, 40000 kPa	628.2
362.68 K, 45000 kPa	633.7
362.68 K, 50000 kPa	638.9
362.68 K, 55000 kPa	643.7
362.68 K, 60000 kPa	648.3
362.68 K, 70000 kPa	657.1
362.68 K, 90000 kPa	672.2
